Data taken from EP4745135A1 (Gluetacs Therapeutics (Shanghai) Co., Ltd., priority 2023, dated 2025).

What was measured:
[1] = system: Human multiple myeloma cell (MM.1S); assay: Tumor cell proliferation inhibition (CellTiter-Meiluncell luminescent cell viability assay); details: Homo sapiens, MM1.S, 96 h; for inhibition at 0.01 µM: read-out: Inhibition Rate at 10 nM (%); for inhibition at 0.5 µM: read-out: Inhibition Rate at 500 nM (%)
[2] = biological target: T1, human Cereblon WT GST-tagged protein (Homo sapiens, UniProt Q96SW2); assay: CRBN-binding affinity, HTRF (CEREBLON BINDING kit); details: for inhibition at 0.5 µM: read-out: Inhibition Rate at 0.5 µM (%); for inhibition at 2 µM: read-out: Inhibition Rate at 2 µM (%)
T1 construct: purchased CISBIO 64BDCRBNPEH

WEE1 = biological target: T2, WEE1 (Homo sapiens, UniProt P30291+Q96SW2); assay: Western blot, degradation of substrate protein in hPBMCs; format: cell-based
T2 construct: effects of the compounds of the present disclosure on the expression of target proteins in cells; endogenous in cells; host or cells: human PBMCs (Milecell Biotechnologies)

IKZF3 = biological target: T3, IKZF3 (Homo sapiens, UniProt Q96SW2+Q9UKT9); assay: as above; format: cell-based
T3 construct: effects of the compounds of the present disclosure on the expression of target proteins in cells; endogenous in cells; host or cells: human PBMCs (Milecell Biotechnologies)

CK1α = biological target: T4, CK1α (Homo sapiens, UniProt P48729+Q96SW2); assay: as above; format: cell-based
T4 construct: effects of the compounds of the present disclosure on the expression of target proteins in cells; endogenous in cells; host or cells: human PBMCs (Milecell Biotechnologies)

IKZF1 = biological target: T5, IKZF1 (Homo sapiens, UniProt Q13422+Q96SW2); assay: as above; format: cell-based
T5 construct: effects of the compounds of the present disclosure on the expression of target proteins in cells; endogenous in cells; host or cells: human PBMCs (Milecell Biotechnologies)

IKZF2 = biological target: T6, IKZF2 (Homo sapiens, UniProt Q96SW2+Q9UKS7); assay: as above; format: cell-based
T6 construct: effects of the compounds of the present disclosure on the expression of target proteins in cells; endogenous in cells; host or cells: human PBMCs (Milecell Biotechnologies)

GSPT1 = assay: as above; format: cell-based, Human
[3] = system: Human myeloid monocytic leukemia cell (MV-4-11); assay: Tumor cell proliferation inhibition (CellTiter-Meiluncell luminescent cell viability assay); details: MV4-11, 96 h; for inhibition at 0.01 µM: read-out: Inhibition Rate at 10 nM (%); for inhibition at 0.5 µM: read-out: Inhibition Rate at 500 nM (%)
[4] = Western blot, 24 hours of compound treatment, compounds tested at 50 nM and 500 nM (concentration for the table not stated)
[5] = 24 hours treatment, compounds at 50 nM and 500 nM (concentration behind the class not stated)

T1 sequence (Q96SW2 whole entry): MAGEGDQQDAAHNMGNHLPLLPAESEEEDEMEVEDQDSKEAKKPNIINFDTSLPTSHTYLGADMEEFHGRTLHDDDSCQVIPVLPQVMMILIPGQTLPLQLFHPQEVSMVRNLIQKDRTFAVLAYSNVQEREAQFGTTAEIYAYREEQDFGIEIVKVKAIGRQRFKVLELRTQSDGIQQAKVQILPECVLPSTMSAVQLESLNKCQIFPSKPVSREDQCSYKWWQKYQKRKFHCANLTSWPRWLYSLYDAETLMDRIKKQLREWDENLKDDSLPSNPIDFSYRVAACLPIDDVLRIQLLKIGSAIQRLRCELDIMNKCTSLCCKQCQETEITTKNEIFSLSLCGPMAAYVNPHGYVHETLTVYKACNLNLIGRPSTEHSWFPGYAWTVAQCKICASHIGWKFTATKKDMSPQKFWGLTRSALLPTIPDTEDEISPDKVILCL
T4 sequence (P48729 whole entry): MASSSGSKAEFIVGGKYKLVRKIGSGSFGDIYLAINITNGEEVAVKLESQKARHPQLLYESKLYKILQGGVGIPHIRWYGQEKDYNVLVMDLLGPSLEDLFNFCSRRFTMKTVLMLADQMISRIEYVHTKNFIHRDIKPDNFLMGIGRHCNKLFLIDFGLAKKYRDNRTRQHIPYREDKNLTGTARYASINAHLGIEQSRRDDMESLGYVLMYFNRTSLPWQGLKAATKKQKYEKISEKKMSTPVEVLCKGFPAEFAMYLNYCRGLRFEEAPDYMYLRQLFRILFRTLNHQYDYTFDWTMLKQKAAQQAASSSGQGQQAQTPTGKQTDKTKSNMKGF
T4 sequence (Q96SW2 whole entry): as the sequence (Q96SW2 whole entry) above
T4 sequence (Q16531 whole entry partner): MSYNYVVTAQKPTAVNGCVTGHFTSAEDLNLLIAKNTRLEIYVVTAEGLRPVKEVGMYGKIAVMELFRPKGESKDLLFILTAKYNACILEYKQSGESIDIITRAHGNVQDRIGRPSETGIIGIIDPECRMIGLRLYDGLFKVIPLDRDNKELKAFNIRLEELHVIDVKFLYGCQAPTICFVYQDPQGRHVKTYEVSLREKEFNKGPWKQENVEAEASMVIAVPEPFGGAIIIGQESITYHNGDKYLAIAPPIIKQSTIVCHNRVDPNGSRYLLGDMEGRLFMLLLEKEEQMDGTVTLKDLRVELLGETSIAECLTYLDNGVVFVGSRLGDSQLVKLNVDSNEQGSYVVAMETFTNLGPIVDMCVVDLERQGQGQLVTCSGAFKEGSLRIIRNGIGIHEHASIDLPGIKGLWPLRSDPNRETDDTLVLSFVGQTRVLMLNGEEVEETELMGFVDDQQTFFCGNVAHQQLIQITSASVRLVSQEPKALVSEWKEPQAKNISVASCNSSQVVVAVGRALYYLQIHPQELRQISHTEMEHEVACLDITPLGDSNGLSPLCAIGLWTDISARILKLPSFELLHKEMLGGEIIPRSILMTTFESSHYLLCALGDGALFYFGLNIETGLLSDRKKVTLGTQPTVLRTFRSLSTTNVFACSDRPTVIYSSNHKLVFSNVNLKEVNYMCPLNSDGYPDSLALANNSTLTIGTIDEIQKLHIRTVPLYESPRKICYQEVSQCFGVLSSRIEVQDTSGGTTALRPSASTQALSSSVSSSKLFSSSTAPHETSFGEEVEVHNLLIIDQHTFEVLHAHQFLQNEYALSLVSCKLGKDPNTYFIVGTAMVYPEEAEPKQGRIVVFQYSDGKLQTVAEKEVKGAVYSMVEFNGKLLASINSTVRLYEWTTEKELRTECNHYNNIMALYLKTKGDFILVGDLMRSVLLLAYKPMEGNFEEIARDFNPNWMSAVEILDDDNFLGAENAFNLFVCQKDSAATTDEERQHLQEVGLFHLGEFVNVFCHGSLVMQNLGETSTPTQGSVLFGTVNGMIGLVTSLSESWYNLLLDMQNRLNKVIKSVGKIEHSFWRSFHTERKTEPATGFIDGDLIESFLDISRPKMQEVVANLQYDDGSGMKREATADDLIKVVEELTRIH
T6 sequence (Q9UKS7 whole entry): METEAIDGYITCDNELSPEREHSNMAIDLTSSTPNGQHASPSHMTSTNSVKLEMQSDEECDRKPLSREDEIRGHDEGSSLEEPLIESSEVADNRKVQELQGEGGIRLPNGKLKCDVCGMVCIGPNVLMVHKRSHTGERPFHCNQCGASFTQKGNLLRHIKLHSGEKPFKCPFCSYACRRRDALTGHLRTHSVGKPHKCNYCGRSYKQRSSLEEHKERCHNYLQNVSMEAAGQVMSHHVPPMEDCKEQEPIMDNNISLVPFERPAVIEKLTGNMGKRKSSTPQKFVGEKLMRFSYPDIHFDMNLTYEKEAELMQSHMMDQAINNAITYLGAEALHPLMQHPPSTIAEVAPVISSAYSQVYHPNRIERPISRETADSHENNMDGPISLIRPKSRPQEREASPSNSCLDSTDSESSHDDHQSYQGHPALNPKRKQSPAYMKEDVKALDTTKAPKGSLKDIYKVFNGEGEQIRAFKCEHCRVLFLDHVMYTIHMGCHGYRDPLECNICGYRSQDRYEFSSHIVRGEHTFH
T6 sequence (Q96SW2 whole entry): as the sequence (Q96SW2 whole entry) above
T6 sequence (Q16531 whole entry partner): as the sequence (Q16531 whole entry partner) above
T2 sequence (P30291 whole entry): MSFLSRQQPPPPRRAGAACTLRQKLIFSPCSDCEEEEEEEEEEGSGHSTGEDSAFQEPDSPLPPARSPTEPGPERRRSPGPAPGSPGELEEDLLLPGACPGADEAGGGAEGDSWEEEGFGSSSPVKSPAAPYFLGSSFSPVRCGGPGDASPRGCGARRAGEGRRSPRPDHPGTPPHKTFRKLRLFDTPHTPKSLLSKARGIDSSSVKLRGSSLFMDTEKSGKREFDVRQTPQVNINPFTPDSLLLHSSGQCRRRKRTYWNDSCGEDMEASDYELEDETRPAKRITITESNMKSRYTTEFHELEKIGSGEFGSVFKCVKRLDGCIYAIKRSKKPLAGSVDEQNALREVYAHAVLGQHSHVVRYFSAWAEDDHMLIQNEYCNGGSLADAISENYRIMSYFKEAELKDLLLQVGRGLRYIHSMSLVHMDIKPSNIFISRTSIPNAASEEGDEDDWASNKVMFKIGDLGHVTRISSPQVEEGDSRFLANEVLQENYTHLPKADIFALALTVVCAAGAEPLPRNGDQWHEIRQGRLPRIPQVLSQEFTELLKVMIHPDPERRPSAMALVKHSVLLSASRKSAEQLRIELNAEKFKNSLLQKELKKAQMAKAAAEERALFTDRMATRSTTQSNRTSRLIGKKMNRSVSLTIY
T2 sequence (Q96SW2 whole entry): as the sequence (Q96SW2 whole entry) above
T2 sequence (Q16531 whole entry partner): as the sequence (Q16531 whole entry partner) above
T3 sequence (Q9UKT9 whole entry): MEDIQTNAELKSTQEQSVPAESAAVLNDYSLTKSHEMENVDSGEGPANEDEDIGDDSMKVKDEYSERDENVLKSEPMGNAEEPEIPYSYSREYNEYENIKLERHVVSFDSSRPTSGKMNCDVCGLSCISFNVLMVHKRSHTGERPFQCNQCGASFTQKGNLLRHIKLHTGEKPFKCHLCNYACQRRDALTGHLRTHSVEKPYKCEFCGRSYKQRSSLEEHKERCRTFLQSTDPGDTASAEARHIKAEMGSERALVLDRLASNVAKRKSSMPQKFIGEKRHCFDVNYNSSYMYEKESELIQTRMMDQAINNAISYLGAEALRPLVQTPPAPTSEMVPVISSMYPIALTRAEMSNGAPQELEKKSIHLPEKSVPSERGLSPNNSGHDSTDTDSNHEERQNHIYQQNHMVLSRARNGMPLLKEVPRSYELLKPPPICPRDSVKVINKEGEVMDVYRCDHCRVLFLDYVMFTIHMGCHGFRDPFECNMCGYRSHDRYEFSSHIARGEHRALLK
T3 sequence (Q96SW2 whole entry): as the sequence (Q96SW2 whole entry) above
T3 sequence (Q16531 whole entry partner): as the sequence (Q16531 whole entry partner) above
T5 sequence (Q13422 whole entry): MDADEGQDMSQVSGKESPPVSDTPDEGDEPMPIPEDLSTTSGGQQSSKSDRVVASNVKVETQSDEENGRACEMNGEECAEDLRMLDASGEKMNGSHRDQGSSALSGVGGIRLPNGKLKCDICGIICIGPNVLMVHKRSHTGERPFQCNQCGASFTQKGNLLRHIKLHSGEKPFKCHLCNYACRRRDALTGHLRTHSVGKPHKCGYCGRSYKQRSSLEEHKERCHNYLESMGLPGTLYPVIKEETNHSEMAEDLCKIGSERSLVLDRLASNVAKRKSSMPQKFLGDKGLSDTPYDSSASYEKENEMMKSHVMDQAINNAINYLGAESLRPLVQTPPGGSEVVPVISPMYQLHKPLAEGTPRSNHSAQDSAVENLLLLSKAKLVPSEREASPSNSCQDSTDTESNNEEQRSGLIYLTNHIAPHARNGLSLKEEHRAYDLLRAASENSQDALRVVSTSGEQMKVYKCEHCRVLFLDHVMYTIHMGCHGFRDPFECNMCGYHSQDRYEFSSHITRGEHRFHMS
T5 sequence (Q96SW2 whole entry): as the sequence (Q96SW2 whole entry) above
T5 sequence (Q16531 whole entry partner): as the sequence (Q16531 whole entry partner) above

| inhibition at 0.5 µM [2] [%] | inhibition at 2 µM [2] [%] | Compound | inhibition at 0.01 µM [1] [%] | inhibition at 0.5 µM [1] [%] | Wee1 substrate protein remaining % (WEE1; [4]) | IKZF3 substrate protein remaining % (IKZF3; [4]) | CK1α substrate protein remaining % (CK1α; [4]) | IKZF 1 substrate protein remaining % (IKZF1; [4]) | IKZF2 substrate protein remaining % (IKZF2; [4]) | GSPT1 substrate protein remaining % (GSPT1; [4]) | inhibition at 0.01 µM [3] [%] | inhibition at 0.5 µM [3] [%] | Wee1 substrate protein remaining % (WEE1; [5]) | IKZF3 substrate protein remaining % (IKZF3; [5]) | CK1α substrate protein remaining % (CK1α; [5]) | IKZF 1 substrate protein remaining % (IKZF1; [5]) | IKZF2 substrate protein remaining % (IKZF2; [5]) | GSPT1 substrate protein remaining % (GSPT1; [5]) |
| --- | --- | --- | --- | --- | --- | --- | --- | --- | --- | --- | --- | --- | --- | --- | --- | --- | --- | --- |
| 60 to 80 | 80 to 100 | O=C1CCC(N2Cc3cc(CN4CCCN(c5cccc(Cl)c5Cl)CC4)ccc3C2=S)C(=O)N1 (stereo not drawn) [GT-08481, 3-(5-((4-(2,3-dichlorophenyl)-1,4-diazepan-1-yl)methyl)-1-thioxoisoindolin-2-yl)piperidine-2,6-dione] | 30 to 40 | 70 to 80 | B (80%< substrate protein remaining %≤ 100%) | B (80%< substrate protein remaining %≤ 100%) | B (80%< substrate protein remaining %≤ 100%) | B (80%< substrate protein remaining %≤ 100%) | B (80%< substrate protein remaining %≤ 100%) | A (0% ≤ substrate protein remaining % ≤ 80%) | 18 to 25 | 60 to 80 |  |  |  |  |  |  |
| 30 to 40 | 53 to 60 | O=C1CCC(N2Cc3c(CN4CCN(c5cc(Cl)ccc5Cl)CC4)cccc3C2=S)C(=O)N1 (stereo not drawn) [GT-08501, 3-(4-((4-(2,5-dichlorophenyl)piperazin-1-yl)methyl)-1-thioxoisoindolin-2-yl)piperidine-2,6-dione] | 50 to 60 | 60 to 70 | A (0% ≤ substrate protein remaining % ≤ 80%) | B (80%< substrate protein remaining %≤ 100%) | B (80%< substrate protein remaining %≤ 100%) | A (0% ≤ substrate protein remaining % ≤ 80%) | A (0% ≤ substrate protein remaining % ≤ 80%) | A (0% ≤ substrate protein remaining % ≤ 80%) | 40 to 60 | 40 to 60 |  |  |  |  |  |  |
| 53 to 60 | 80 to 100 | O=C1CCC(N2Cc3cc(CN4CCN(c5ccc(Br)cc5)CC4)ccc3C2=S)C(=O)N1 (stereo not drawn) [GT-08600, 3-(5-((4-(4-bromophenyl)piperazin-1-yl)methyl)-1-thioxoisoindolin-2-yl)piperidine-2,6-dione] | 30 to 40 | 60 to 70 | B (80%< substrate protein remaining %≤ 100%) | B (80%< substrate protein remaining %≤ 100%) | B (80%< substrate protein remaining %≤ 100%) | B (80%< substrate protein remaining %≤ 100%) | B (80%< substrate protein remaining %≤ 100%) | A (0% ≤ substrate protein remaining % ≤ 80%) | 40 to 60 | 80 to 100 |  |  |  |  |  |  |
| 53 to 60 | 80 to 100 | O=C1CCC(N2Cc3cc(CN4CCC(c5ccccc5F)CC4)ccc3C2=S)C(=O)N1 (stereo not drawn) [GT-08620, 3-(5-((4-(2-fluorophenyl)piperidin-1-yl)methyl)-1-thioxoisoindolin-2-yl)piperidine-2,6-dione] | 40 to 50 | 70 to 80 | B (80%< substrate protein remaining %≤ 100%) | B (80%< substrate protein remaining %≤ 100%) | B (80%< substrate protein remaining %≤ 100%) | B (80%< substrate protein remaining %≤ 100%) | A (0% ≤ substrate protein remaining % ≤ 80%) | A (0% ≤ substrate protein remaining % ≤ 80%) | 30 to 40 | 60 to 80 |  |  |  |  |  |  |
| 53 to 60 | 80 to 100 | O=C1CCC(N2Cc3c(CN4CCC(c5ccon5)CC4)cccc3C2=S)C(=O)N1 (stereo not drawn) [GT-08817, 3-(4-((4-(isoxazol-3-yl)piperidin-1-yl)methyl)-1-thioxoisoindolin-2-yl)piperidine-2,6-dione] | 20 to 30 | 40 to 50 | A (0% ≤ substrate protein remaining % ≤ 80%) | B (80%< substrate protein remaining %≤ 100%) | B (80%< substrate protein remaining %≤ 100%) | B (80%< substrate protein remaining %≤ 100%) | B (80%< substrate protein remaining %≤ 100%) | B (80%< substrate protein remaining %≤ 100%) | 40 to 60 | 30 to 40 |  |  |  |  |  |  |
| 53 to 60 | 60 to 80 | O=C1CCC(N2Cc3c(CN4CC=C(c5ncnc6sc(-c7ccccc7)cc56)CC4)cccc3C2=S)C(=O)N1 (stereo not drawn) [GT-08956, 3-(4-((4-(6-phenylthieno[2,3-d]pyrimidin-4-yl)-3,6-dihydropyridin-1(2H)-yl)methyl)-1-thioxoisoindolin-2-yl)piperidine-2,6-dione] | 20 to 30 | 40 to 50 |  |  |  |  |  |  | 18 to 25 | 40 to 60 | A (0% ≤ substrate protein remaining % ≤ 80%) | B (80%< substrate protein remaining %≤ 100%) | B (80%< substrate protein remaining %≤ 100%) | B (80%< substrate protein remaining %≤ 100%) | B (80%< substrate protein remaining %≤ 100%) | A (0% ≤ substrate protein remaining % ≤ 80%) |
| 60 to 80 | 80 to 100 | O=C1CCC(N2Cc3cc(CN4CCN(c5cccc(Cl)n5)CC4)ccc3C2=S)C(=O)N1 (stereo not drawn) [GT-09215, 3-(5-((4-(6-chloropyridin-2-yl)piperazin-1-yl)methyl)-1-thioxoisoindolin-2-yl)piperidine-2,6-dione] | 30 to 40 | 50 to 60 | B (80%< substrate protein remaining %≤ 100%) | B (80%< substrate protein remaining %≤ 100%) | B (80%< substrate protein remaining %≤ 100%) | B (80%< substrate protein remaining %≤ 100%) | B (80%< substrate protein remaining %≤ 100%) | A (0% ≤ substrate protein remaining % ≤ 80%) | 40 to 60 | 80 to 100 |  |  |  |  |  |  |
| 60 to 80 | 80 to 100 | O=C1CCC(N2Cc3cc(CN4CCN(c5ccc(Cl)cn5)CC4)ccc3C2=S)C(=O)N1 (stereo not drawn) [GT-09217, 3-(5-((4-(5-chloropyridin-2-yl)piperazin-1-yl)methyl)-1-thioxoisoindolin-2-yl)piperidine-2,6-dione] | 30 to 40 | 60 to 70 | B (80%< substrate protein remaining %≤ 100%) | B (80%< substrate protein remaining %≤ 100%) | B (80%< substrate protein remaining %≤ 100%) | B (80%< substrate protein remaining %≤ 100%) | B (80%< substrate protein remaining %≤ 100%) | A (0% ≤ substrate protein remaining % ≤ 80%) | 40 to 60 | 80 to 100 |  |  |  |  |  |  |
| 53 to 60 | 80 to 100 | O=C1CCC(N2Cc3cc(CN4CCN(c5c[nH]c6ncccc56)CC4)ccc3C2=S)C(=O)N1 (stereo not drawn) [GT-09261, 3-(5-((4-(1H-pyrrolo[2,3-b]pyridin-3-yl)piperazin-1-yl)methyl)-1-thioxoisoindolin-2-yl)piperidine-2,6-dione] | 40 to 50 | 40 to 50 |  |  |  |  |  |  | 40 to 60 | 40 to 60 | B (80%< substrate protein remaining %≤ 100%) | B (80%< substrate protein remaining %≤ 100%) | B (80%< substrate protein remaining %≤ 100%) | B (80%< substrate protein remaining %≤ 100%) | B (80%< substrate protein remaining %≤ 100%) | A (0% ≤ substrate protein remaining % ≤ 80%) |

| Compound | inhibition at 0.5 µM [2] [%] | inhibition at 2 µM [2] [%] | inhibition at 0.01 µM [1] [%] | inhibition at 0.5 µM [1] [%] | Wee1 substrate protein remaining % (WEE1; [4]) | IKZF3 substrate protein remaining % (IKZF3; [4]) | CK1α substrate protein remaining % (CK1α; [4]) | IKZF 1 substrate protein remaining % (IKZF1; [4]) | IKZF2 substrate protein remaining % (IKZF2; [4]) | GSPT1 substrate protein remaining % (GSPT1; [4]) | inhibition at 0.01 µM [3] [%] | inhibition at 0.5 µM [3] [%] | Wee1 substrate protein remaining % (WEE1; [5]) | IKZF3 substrate protein remaining % (IKZF3; [5]) | CK1α substrate protein remaining % (CK1α; [5]) | IKZF 1 substrate protein remaining % (IKZF1; [5]) | IKZF2 substrate protein remaining % (IKZF2; [5]) | GSPT1 substrate protein remaining % (GSPT1; [5]) |
| --- | --- | --- | --- | --- | --- | --- | --- | --- | --- | --- | --- | --- | --- | --- | --- | --- | --- | --- |
| O=C1CCC(N2Cc3c(CN4C5CCC4CN(c4cccc(Cl)c4Cl)C5)cccc3C2=S)C(=O)N1 (stereo not drawn) [GT-08471, 3-(4-((3-(2,3-dichlorophenyl)-3,8-diazabicyclo[3.2.1]octan-8-yl)methyl)-1-thioxoisoindolin-2-yl)piperidine-2,6-dione] | 30 to 40 | 60 to 80 | 40 to 50 | 40 to 50 | B (80%< substrate protein remaining %≤ 100%) | B (80%< substrate protein remaining %≤ 100%) | B (80%< substrate protein remaining %≤ 100%) | B (80%< substrate protein remaining %≤ 100%) | B (80%< substrate protein remaining %≤ 100%) | A (0% ≤ substrate protein remaining % ≤ 80%) | 40 to 60 | 40 to 60 |  |  |  |  |  |  |
